Experimental data published in PMC12452389, “Arginine-Derived Cationic Surfactants Containing Phenylalanine and Tryptophan: Evaluation of Antifungal Activity, Biofilm Eradication, Cytotoxicity, and Ecotoxicity” (Journal of Xenobiotics, 2025).
Where two headings read alike, the source gives them in different places.

Key:
cmc by conductivity = type: physicochemical; conditions: conductivity measurements; BAC mixture C12 (70%) and C14 (30%)
[1] = tested on: Candida albicans ATCC 90028; assay: MIC broth microdilution; type: cell-based; conditions: C. albicans
Method: (§1) The antimicrobial activity of these compounds was assessed against selected yeast and bacterial strains: Candida albicans ATCC 90028 (CA9), Candida rugosa ATCC 10571 (CR), Candida glabrata ATCC 66032 (CG), Candida parapsilosis ATCC 22019 (CP), Candida tropicalis ATCC 7349 (CT), Candida auris ATCC 21092 (CA), and Cyberlindnera jadinii ATCC 60459. Frozen yeast stocks were plated on Sabouraud agar (SBA) and incubated at 30 °C for 24 h. Three to four colonies from each strain were then suspended in RPMI 1640 (Roswell Park Memorial Institute medium, Sigma- Aldrich, Merck, Darmstadt, Germany) to prepare bacterial dispersions of ~1.5 × 10^6 CFU/mL.
(§2) A broth microdilution assay was used to calculate MIC values. Twofold serially diluted compounds in RPMI 1640 medium (from 256 to 2 μg/mL), were dispensed (100 μL per well) into a 96-well plate. Then, 100 μL of a yeast starter culture was added to each well to reach a final inoculum of 7.5 × 10^5 CFU/mL. Wells containing only nutrient broth without the tested surfactant served as growth controls. Microbial growth was assessed by turbidity, which reflects increases in biomass and cell count. […] To confirm the obtained MICs, 20 μL of 0.015% (w/v) resazurin was dispensed to each well and incubated for 3 h at 30 °C. Metabolic activity was evidenced by a color change from blue to pink, thereby confirming the MIC value.

[2] = tested on: Candida tropicalis ATCC 7349; assay: MIC broth microdilution; type: cell-based; conditions: C. tropicalis
Method: as §1, §2

[3] = tested on: Candida parapsilosis ATCC 22019; assay: MIC broth microdilution; type: cell-based; conditions: C. parapsilosis
Method: as §1, §2

[4] = tested on: Candida glabrata ATCC 66032; assay: MIC broth microdilution; type: cell-based; conditions: C. glabrata
Method: as §1, §2

[5] = tested on: Candida rugosa ATCC 10571; assay: MIC broth microdilution; type: cell-based; conditions: C. rugosa
Method: as §1, §2

[6] = tested on: Cyberlindnera jadinii ATCC 60459 (C. jardinii); assay: MIC broth microdilution; type: cell-based; conditions: C. jardinii
Method: as §1, §2

Candida auris ATCC 21092 = assay: MIC broth microdilution; type: cell-based; conditions: C. auris
Method: as §1, §2

Daphnia magna = assay: Acute toxicity, immobilization test; type: in vivo; conditions: Daphnia magna immobilization, 48 h of exposure; 95% confidence intervals in parentheses
Method: Aquatic toxicity evaluation was performed using Daphnia magna following established protocols. This bioassay method employs laboratory-cultured freshwater microcrustaceans to evaluate surfactant toxicity in aquatic environments. Test organisms were utilized during their initial 24 h life stage to ensure consistency. The endpoint measurement focused on mobility impairment, specifically the loss of swimming capability after gentle stimulation lasting 15 s. Testing conditions included controlled water chemistry parameters: pH maintained at 8.0, calcium-to-magnesium ratio of 4:1, and total hardness of 250 mg/L as CaCO3. All experiments were conducted under dark conditions at 20 °C. The experimental design incorporated ten test concentrations for each surfactant compound, distributed in geometric progression. Each concentration level included 20 Daphnia specimens distributed across four replicate groups of five organisms each. Mobility assessment occurred at 48 h post-exposure, with immobilization percentages plotted against concentration using probability–logarithmic scaling.

erythrocytes = assay: Hemolytic activity assay; type: cell-based; conditions: rabbit erythrocytes
Method: Fresh rabbit blood was obtained from the Animal Facility of the CID-CSIC (Research and Development Center, Spanish National Research Council, Barcelona, Spain). Sample collection was conducted in strict compliance with the bioethical guidelines established under Spanish legislation. Erythrocytes were isolated by centrifugation (3000 rpm/10 min). The supernatant was discarded, and the erythrocytes were washed three times with PBS (phosphate-buffered saline, pH 7.4) and then resuspended in PBS at a concentration of 8 × 10^9 cells/mL. Subsequently, varying volumes of a concentrated surfactant solution were added to Eppendorf tubes containing 25 μL of erythrocyte suspension. PBS was then added to bring the total volume to 1 mL. The samples were gently shaken for 10 min at room temperature and centrifuged at 10,000 rpm for 5 min. Hemolysis was evaluated by measuring the absorbance of the supernatant at 540 nm and comparing it to that of a 100% hemolysis control (erythrocytes treated with distilled water). The HC50, defined as the surfactant concentration that induces 50% hemolysis, was determined from the concentration–response curves: % hemolysis= Abstest compound/AbsBasal haemolytic activity ×100

[7] = value in parentheses, read-out: MIC

benzalkonium chloride [BAC, reference compound]
cmc (cmc by conductivity): 5.2 mM
MIC ([1]; RPMI 1640, 24 h, 30 °C): 8 µg/mL
MIC [1, 7]: 24 µM
MIC ([2]; RPMI 1640, 24 h, 30 °C): 4 µg/mL
MIC [2, 7]: 12 µM
MIC ([3]; RPMI 1640, 24 h, 30 °C): 4 µg/mL
MIC [3, 7]: 12 µM
MIC ([4]; RPMI 1640, 24 h, 30 °C): 8 µg/mL
MIC [4, 7]: 24 µM
MIC ([5]; RPMI 1640, 24 h, 30 °C): 8 µg/mL
MIC [5, 7]: 24 µM
MIC ([6]; RPMI 1640, 24 h, 30 °C): 16 µg/mL
MIC [6, 7]: 48 µM
MIC (Candida auris ATCC 21092; RPMI 1640, 24 h, 30 °C): 32 µg/mL
MIC (Candida auris ATCC 21092; [7]): 98 µM
EC50 (Daphnia magna): 0.039 (0.023–0.05) μg/mL
HC50 (erythrocytes; 10 min, room temperature): 31 ± 0.3 µg/mL
HC50 (erythrocytes; value in parentheses): 92 ± 0.8 µM
